US10329270B2, “Heteroaryl compounds as BTK inhibitors and uses thereof” (Merck Patent GmbH, priority 2013, dated 2019)

Experiments:
PBMC = assay: Assay B: Time Dependent PMBC IC50 Assay; assay type: cell-based
Method: Assay B: Time Dependent PMBC IC50 Assay
Compounds described by embodiments of the present invention were assayed using a time dependent PMBC assay. The data from the same is recorded in Table 2 within the column labeled: “Time Dependent PBMC Assay IC50.” These IC50 values are reported in ranges wherein: I<1 uM and II>1 uM.

full-length human BTK = target: T1, full-length human BTK (Homo sapiens, UniProt Q06187); assay: Assay A: BTK IC50 Enzyme Assay (microfluidic off-chip mobility shift kinase assay); assay type: biochemical; conditions: full-length human BTK, kinKDR peptide substrate, incubated 90 min at 27 C; read-out: Assay A (Time Dependent BTK Enzyme Assay IC50)
T1 construct: 2.5× stocks of full-length human BTK (08-080); purchased CarnaBio USA, Inc., Natick, Mass; 08-080
Summary of the method: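 Off-chip microfluidic mobility shift assay with full-length human BTK; phosphorylated and unphosphorylated peptide substrate were separated by charge/mass on a LabChip 3000.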

T1 sequence (Q06187 whole entry): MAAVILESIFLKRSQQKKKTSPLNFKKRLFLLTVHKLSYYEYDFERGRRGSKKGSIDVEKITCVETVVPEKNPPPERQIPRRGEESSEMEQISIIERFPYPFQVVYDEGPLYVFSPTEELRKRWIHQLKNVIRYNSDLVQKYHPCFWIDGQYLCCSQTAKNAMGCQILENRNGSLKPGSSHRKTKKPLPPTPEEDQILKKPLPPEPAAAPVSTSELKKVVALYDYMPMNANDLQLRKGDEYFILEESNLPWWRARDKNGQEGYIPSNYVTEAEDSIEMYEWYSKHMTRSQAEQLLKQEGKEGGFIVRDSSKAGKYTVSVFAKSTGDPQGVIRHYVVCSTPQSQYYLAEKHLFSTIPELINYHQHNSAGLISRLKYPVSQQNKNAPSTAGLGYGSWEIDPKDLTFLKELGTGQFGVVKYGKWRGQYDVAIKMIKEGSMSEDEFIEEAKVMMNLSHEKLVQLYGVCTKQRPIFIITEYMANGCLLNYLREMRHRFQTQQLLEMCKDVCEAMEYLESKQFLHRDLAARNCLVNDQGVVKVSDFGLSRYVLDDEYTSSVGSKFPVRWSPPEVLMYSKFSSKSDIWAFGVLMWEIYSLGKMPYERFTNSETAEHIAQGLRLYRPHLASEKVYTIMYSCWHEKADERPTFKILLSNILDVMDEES

Row | SMILES | IC50 (PBMC) | IC50 (full-length human BTK)
1 | C=CC(=O)N1C2CCC1CN(c1ccc(C(N)=O)c(Oc3ccc(Oc4ccccc4)cc3)n1)C2 [Compound 68, 6-(8-Acryloyl-3,8-diaza-bicyclo[3.2.1]oct-3-yl)-2-(4-phenoxy-phenoxy)-nicotinamide] | < 100 nM | –
2 | C=CC(=O)N1CCC(c2ccc(C(N)=O)c(Nc3ccc(C(=O)N4CCCC(NC(=O)CCOCCOCCOCCOCCNC(=O)CCCC[C@@H]5SCC6NC(=O)NC65)C4)cc3)n2)CC1 (stereo partly drawn) [Compound 191, 6-(1-acryloylpiperidin-4-yl)-2-((4-(3-(17-oxo-21-((4S)-2-oxohexahydro-1H-thieno[3,4-d]imidazol-4-yl)-4,7,10,13-tetraoxa-16-azahenicosanamido)piperidine-1-carbonyl)phenyl)amino)nicotinamide] | > 5000 nM | < 100 nM
3 | C=CC(=O)N1CCC2(CCN(c3ccc(C(N)=O)c(Nc4ccc(CCN5CCCC5)cc4)n3)C2)C1 (stereo not drawn) [Compound 20, 6-(7-Acryloyl-2,7-diaza-spiro[4.4]non-2-yl)-2-[4-(2-pyrrolidin-1-yl-ethyl)-phenylamino]-nicotinamide] | < 100 nM | < 100 nM
4 | N#CN1CCCC(c2cnc(Oc3ccc(Oc4ccccc4)cc3)c(C(N)=O)c2)C1 (stereo not drawn) [Compound 236, 1′-Cyano-6-(4-phenoxy-phenoxy)-1′,2′,3′,4′,5′,6′-hexahydro-[3,3′]bipyridinyl-5-carboxylic acid amide] | 100 to 1000 nM | < 100 nM
5 | C=CC(=O)N1C[C@@H]2C[C@H]1CN2c1ccc(C(N)=O)c(Oc2ccc(Oc3ccccc3)cc2)n1 [Compound 23, 6-((1S,4S)-5-acryloyl-2,5-diazabicyclo[2.2.1]heptan-2-yl)-2-(4-phenoxyphenoxy)nicotinamide] | < 100 nM | –
6 | C=CC(=O)N1CCC(c2ccc(C(N)=O)c(Nc3ccc(C(=O)N4CCN(C(=O)CCCCNC(=O)CCOCCOCCOCCOCCNC(=O)CCCCC5SCC6NC(=O)NC65)CC4)cc3)n2)CC1 (stereo not drawn) [Compound 177] | > 5000 nM | < 100 nM
7 | C=CC(=O)N[C@H]1CCN(c2ccc(C(N)=O)c(Nc3ccc(N4CCOCC4)nc3)n2)C1 [Compound 38, 6-((S)-3-Acryloylamino-pyrrolidin-1-yl)-2-(6-morpholin-4-yl-pyridin-3-ylamino)-nicotinamide] | 100 to 1000 nM | < 100 nM
8 | C=CC(=O)N[C@H]1CCN(c2ccc(C(N)=O)c(Nc3ccc(N4CCCCC4)cc3)n2)C1 [Compound 31, 6-((S)-3-Acryloylamino-pyrrolidin-1-yl)-2-(4-piperidin-1-yl-phenylamino)-nicotinamide] | 100 to 1000 nM | < 100 nM
9 | C=CC(=O)N[C@H]1CCN(c2cc(Nc3ccc(C(=O)N4CCOCC4)cc3)c(C(N)=O)cn2)C1 [Compound 108, 6-((S)-3-Acryloylamino-pyrrolidin-1-yl)-4-[4-(morpholine-4-carbonyl)-phenylamino]-nicotinamide] | 100 to 1000 nM | < 100 nM
10 | C=CC(=O)N[C@H]1CCN(c2nc(Nc3ccc(CCN4CCCC4)cc3)c(C(N)=O)cc2F)C1 [Compound 179, 6-((S)-3-Acryloylamino-pyrrolidin-1-yl)-5-fluoro-2-[4-(2-pyrrolidin-1-yl-ethyl)-phenylamino]-nicotinamide] | < 100 nM | < 100 nM
11 | C=CC(=O)N1CC[C@@H](Nc2ccc(C(N)=O)c(Oc3ccc(Oc4ccccc4)cc3)n2)C1 [Compound 72, 6-((R)-1-Acryloyl-pyrrolidin-3-ylamino)-2-(4-phenoxy-phenoxy)-nicotinamide] | < 100 nM | –
12 | C=CC(=O)N1CCC(c2ncc(C(N)=O)c(Oc3ccc(Oc4ccccc4)cc3)n2)CC1 [Compound 148, 2-(1-Acryloyl-piperidin-4-yl)-4-(4-phenoxy-phenoxy)-pyrimidine-5-carboxylic acid amide] | – | < 100 nM
13 | C=CC(=O)N1CCC(c2ccc(C(N)=O)c(Nc3ccc(N4C[C@@H](C)O[C@@H](C)C4)nc3)n2)CC1 [Compound 32, 1′-Acryloyl-6-[6-((2R,6S)-2,6-dimethyl-morpholin-4-yl)-pyridin-3-ylamino]-1′,2′,3′,4′,5′,6′-hexahydro-[2,4′]bipyridinyl-5-carboxylic acid amide] | – | < 100 nM
14 | C=CC(=O)N1CCC2(CCN(c3cnc(Oc4ccc(Oc5cccc(F)c5)cc4)c(C(N)=O)c3)C2)C1 (stereo not drawn) [Compound 233, 5-(7-acryloyl-2,7-diazaspiro[4.4]nonan-2-yl)-2-(4-(3-fluorophenoxy)phenoxy)nicotinamide] | – | 100 to 1000 nM
15 | C=CC(=O)N[C@H]1CCN(c2ccc(C(N)=O)c(Nc3cccc(C)c3)n2)C1 [Compound 57, 6-((S)-3-Acryloylamino-pyrrolidin-1-yl)-2-m-tolylamino-nicotinamide] | – | < 100 nM
16 | N#CN1CCCC(Nc2cnc(Oc3ccc(Oc4ccccc4)cc3)c(C(N)=O)c2)C1 (stereo not drawn) [Compound 247, 5-[(1-cyanopiperidin-3-yl)amino]-2-(4-phenoxyphenoxy)pyridine-3-carboxamide] | – | 1000 to 5000 nM
17 | C=CC(=O)N[C@H]1CCN(c2nc(Nc3ccc(CCN4CCCC4)cc3)c(F)cc2C(N)=O)C1 [Compound 4, 2-((S)-3-Acryloylamino-pyrrolidin-1-yl)-5-fluoro-6-[4-(2-pyrrolidin-1-yl-ethyl)-phenylamino]-nicotinamide] | – | 100 to 1000 nM

Row | SMILES | IC50 (PBMC) | IC50 (full-length human BTK)
18 | C=CC(=O)N1CCC(CNc2ncc(C(N)=O)c(Oc3ccc(Oc4ccccc4)cc3)n2)CC1 [Compound 209, 2-(((1-acryloylpiperidin-4-yl)methyl)amino)-4-(4-phenoxyphenoxy)pyrimidine-5-carboxamide] | – | 100 to 1000 nM
19 | C=CC(=O)NC1CCC(c2cnc(C(N)=O)c(NC(C)=O)c2)CC1 (stereo not drawn) [Compound 133] | – | 1000 to 5000 nM
20 | C=CC(=O)N[C@H]1CCN(c2ncnc(C(N)=O)c2Cl)C1 [Compound 172, 6-((S)-3-Acryloylamino-pyrrolidin-1-yl)-5-chloro-pyrimidine-4-carboxylic acid amide] | – | > 5000 nM
21 | C=CC(=O)N1C[C@@H]2C[C@H]1CN2c1ncc(C(N)=O)c(Oc2ccc(Oc3ccccc3)cc2)n1 [Compound 147, 2-((1S,4S)-5-acryloyl-2,5-diazabicyclo[2.2.1]heptan-2-yl)-4-(4-phenoxyphenoxy)pyrimidine-5-carboxamide] | – | < 100 nM
22 | C=CC(=O)N[C@@H]1CCN(c2ncc(C(N)=O)c(N)n2)C1 [Compound 144, 2-((R)-3-Acryloylamino-pyrrolidin-1-yl)-4-amino-pyrimidine-5-carboxylic acid amide] | – | 100 to 1000 nM
23 | C=CC(=O)NC1CCN(c2cnc(Oc3ccc(Oc4cccc(F)c4)cc3)c(C(N)=O)c2)CC1 [Compound 212, 4-Acryloylamino-6′-[4-(3-fluoro-phenoxy)-phenoxy]-3,4,5,6-tetrahydro-2H-[1,3′]bipyridinyl-5′-carboxylic acid amide] | – | 100 to 1000 nM
24 | C=CC(=O)NC1CCN(c2cnc(Oc3ccc(Oc4ccccc4)cc3)c(C(N)=O)c2)CC1 [Compound 197] | – | 100 to 1000 nM
25 | C=CC(=O)N[C@H]1CCN(c2ccc(C(N)=O)c(Oc3cccnc3)n2)C1 [Compound 92, 6-((S)-3-Acryloylamino-pyrrolidin-1-yl)-2-(pyridin-3-yloxy)-nicotinamide] | – | 100 to 1000 nM
26 | C=CC(=O)N[C@H]1CCN(c2nc(Nc3ccc(N4C[C@@H](C)O[C@@H](C)C4)nc3)c(C(N)=O)cc2F)C1 [Compound 6, 6-((S)-3-Acryloylamino-pyrrolidin-1-yl)-2-[6-(cis-2,6-dimethyl-morpholin-4-yl)-pyridin-3-ylamino]-5-fluoro-nicotinamide] | – | 1000 to 5000 nM
27 | C/C=C/C(=O)N1CCC2(CCN(c3cnc(Oc4ccc(Oc5cccc(F)c5)cc4)c(C(N)=O)c3)C2)C1 (stereo not drawn) [Compound 232, (E)-5-(7-(but-2-enoyl)-2,7-diazaspiro[4.4]nonan-2-yl)-2-(4-(3-fluorophenoxy)phenoxy) nicotinamide] | – | 1000 to 5000 nM
28 | C=CC(=O)N[C@H]1CCN(c2nc(Nc3ccc(NC(=O)C(C)(C)C)cc3)ccc2C(N)=O)C1 [Compound 156, 2-((S)-3-Acryloylamino-pyrrolidin-1-yl)-6-[4-(2,2-dimethyl-propionylamino)-phenylamino]-nicotinamide] | – | < 100 nM
29 | C=CC(=O)NCc1ccc(-c2ccc(C(N)=O)c(Oc3ccc(Oc4ccccc4)cc3)n2)o1 [Compound 161, 6-(5-(acrylamidomethyl)furan-2-yl)-2-(4-phenoxyphenoxy)nicotinamide] | – | > 5000 nM
30 | C=CC(=O)NC1CCN(c2cnc(Oc3ccc(Oc4ccccc4)cc3)c(C(N)=O)c2)C1 (stereo not drawn) [Compound 196, 5-(3-Acryloylamino-pyrrolidin-1-yl)-2-(4-phenoxy-phenoxy)-nicotinamide] | – | 100 to 1000 nM
31 | C=CC(=O)N1CCC(Nc2cnc(Oc3ccc(Oc4cccc(F)c4)cc3)c(C(N)=O)c2)CC1 [Compound 228, 5-(1-Acryloyl-piperidin-4-ylamino)-2-[4-(3-fluoro-phenoxy)-phenoxy]-nicotinamide] | – | < 100 nM
32 | C=CC(=O)N1CCCN(c2ncc(C(N)=O)c(Oc3ccc(Oc4ccccc4)cc3)n2)CC1 [Compound 206, 2-(4-acryloyl-1,4-diazepan-1-yl)-4-(4-phenoxyphenoxy)pyrimidine-5-carboxamide] | – | 100 to 1000 nM
33 | NC(=O)c1ccc(C2CCN(C(=O)/C=C/CN3CCN(CCNC(=O)CCCC[C@@H]4SC[C@@H]5NC(=O)N[C@@H]54)CC3)CC2)nc1Oc1ccc(Oc2ccccc2)cc1 [Compound 86, 6-(1-((E)-4-(4-(2-(5-((3aS,4S,6aR)-2-oxohexahydro-1H-thieno[3,4-d]imidazol-4-yl)pentanamido)ethyl)piperazin-1-yl)but-2-enoyl)piperidin-4-yl)-2-(4-phenoxyphenoxy)nicotinamide] | – | 100 to 1000 nM
34 | C=CC(=O)N(C)[C@H]1CCN(c2ccc(C(N)=O)c(Oc3ccc(Oc4ccccc4)cc3)n2)C1 [Compound 107, 6-[(S)-3-(Acryloyl-methyl-amino)-pyrrolidin-1-yl]-2-(4-phenoxy-phenoxy)-nicotinamide] | – | < 100 nM
